Earlier results as cited in patent US20250231185A1, “Coronavirus T Cell Epitopes, Megapools and Uses Thereof” (La Jolla Institute for Immunology, priority 2021, published 2025).

Tested on: CD8+ T cells
Details: CD8R (D) megapool epitopes; dominant = recognized by 3 or more donors/different studies; cited from earlier work

Substance | Dominant
1730 (LVLSVNPYV) [compound 1730] | Yes (more dominant epitopes are defined by being recognized by 3 or more donors/different studies)
1799 (VTDTPKGPK) [compound 1799] | Yes (more dominant epitopes are defined by being recognized by 3 or more donors/different studies)
1786 (MPASWVMRI) [compound 1786] | Yes (more dominant epitopes are defined by being recognized by 3 or more donors/different studies)
1717 (KLFDRYFKY) [compound 1717] | Yes (more dominant epitopes are defined by being recognized by 3 or more donors/different studies)
1739 (IVDTVSALV) [compound 1739] | Yes (more dominant epitopes are defined by being recognized by 3 or more donors/different studies)
1754 (GVAMPNLYK) [compound 1754] | Yes (more dominant epitopes are defined by being recognized by 3 or more donors/different studies)
1729 (VLQAVGACV) [compound 1729] | Yes (more dominant epitopes are defined by being recognized by 3 or more donors/different studies)
1709 (LPAADLDDF) [compound 1709] | Yes (more dominant epitopes are defined by being recognized by 3 or more donors/different studies)
1783 (FLNRFTTTL) [compound 1783] | Yes (more dominant epitopes are defined by being recognized by 3 or more donors/different studies)
1775 (SLRPDTRYVL) [compound 1775] | Yes (more dominant epitopes are defined by being recognized by 3 or more donors/different studies)
1676 (SELVIGAVIL) [compound 1676] | Yes (more dominant epitopes are defined by being recognized by 3 or more donors/different studies)
1791 (NTCDGTTFTY) [compound 1791] | Yes (more dominant epitopes are defined by being recognized by 3 or more donors/different studies)
1771 (QLMCQPILLL) [compound 1771] | Yes (more dominant epitopes are defined by being recognized by 3 or more donors/different studies)
1685 (YYRRATRRIR) [compound 1685] | Yes (more dominant epitopes are defined by being recognized by 3 or more donors/different studies)
1817 (KLGSLVVRC) [compound 1817] | Yes (more dominant epitopes are defined by being recognized by 3 or more donors/different studies)
1692 (NPANNAAIVL) [compound 1692] | Yes (more dominant epitopes are defined by being recognized by 3 or more donors/different studies)
1715 (TMADLVYAL) [compound 1715] | Yes (more dominant epitopes are defined by being recognized by 3 or more donors/different studies)
1792 (FTYASALWEI) [compound 1792] | Yes (more dominant epitopes are defined by being recognized by 3 or more donors/different studies)
1702 (ASAFFGMSR) [compound 1702] | Yes (more dominant epitopes are defined by being recognized by 3 or more donors/different studies)
1719 (ISDYDYYRY) [compound 1719] | Yes (more dominant epitopes are defined by being recognized by 3 or more donors/different studies)
1807 (LLYDANYFL) [compound 1807] | Yes (more dominant epitopes are defined by being recognized by 3 or more donors/different studies)

Same assay, conditions: CD8RE megapool peptides (non-spike SARS-CoV-2 antigens); dominant epitope Yes/No; cited from earlier work

Substance | Dominant
3030 (ALRANSAVK) [compound 3030] | Yes (more dominant epitopes are defined by being recognized by 3 or more donors/different studies)
2994 (KLVNKFLAL) [compound 2994] | Yes (more dominant epitopes are defined by being recognized by 3 or more donors/different studies)
3012 (TSEDMLNPNY) [compound 3012] | Yes (more dominant epitopes are defined by being recognized by 3 or more donors/different studies)
2995 (VTNNTFTLK) [compound 2995] | Yes (more dominant epitopes are defined by being recognized by 3 or more donors/different studies)
2909 (RLFARTRSMW) [compound 2909] | Yes (more dominant epitopes are defined by being recognized by 3 or more donors/different studies)
3001 (SAPPAQYEL) [compound 3001] | Yes (more dominant epitopes are defined by being recognized by 3 or more donors/different studies)
3033 (YTELEPPCRF) [compound 3033] | Yes (more dominant epitopes are defined by being recognized by 3 or more donors/different studies)
2972 (SSNVANYQK) [compound 2972] | Yes (more dominant epitopes are defined by being recognized by 3 or more donors/different studies)
2938 (GMSRIGMEV) [compound 2938] | Yes (more dominant epitopes are defined by being recognized by 3 or more donors/different studies)
2973 (VYIGDPAQL) [compound 2973] | Yes (more dominant epitopes are defined by being recognized by 3 or more donors/different studies)
2904 (KLLEQWNLV) [compound 2904] | Yes (more dominant epitopes are defined by being recognized by 3 or more donors/different studies)
3049 (VFITLCFTLK) [compound 3049] | Yes (more dominant epitopes are defined by being recognized by 3 or more donors/different studies)

Same assay, conditions: SARS-CoV-2-derived CD8 epitopes; dominant = recognized by 3 or more donors/different studies; cited from earlier work

Substance | Dominant
660 (HTTDPSFLGRY) [compound 660] | Yes (more dominant epitopes are defined by being recognized by 3 or more donors/different studies)
583 (VTNNTFTLK) [compound 583] | Yes (more dominant epitopes are defined by being recognized by 3 or more donors/different studies)
594 (YLFDESGEFKL) [compound 594] | Yes (more dominant epitopes are defined by being recognized by 3 or more donors/different studies)
538 (ASAFFGMSR) [compound 538] | Yes (more dominant epitopes are defined by being recognized by 3 or more donors/different studies)
566 (KTIQPRVEK) [compound 566] | Yes (more dominant epitopes are defined by being recognized by 3 or more donors/different studies)
678 (SAPPAQYEL) [compound 678] | Yes (more dominant epitopes are defined by being recognized by 3 or more donors/different studies)

Same assay, conditions: SARS-CoV-2 Ag S; T cell type recognizing the epitope; cited from earlier work

Substance | Restriction
1346 (QTNSPRRAR) [compound 1346] | CD8
1370 (QEVFAQVKQIY) [compound 1370] | CD8
1459 (YEQYIKWPW) [compound 1459] | CD8
1359 (IPTNFTISV) [compound 1359] | CD8
1455 (SLIDLQEL) [compound 1455] | CD8
1409 (AEVQIDRL) [compound 1409] | CD8
1400 (LSSTASALGK) [compound 1400] | CD8
1454 (NESLIDLQEL) [compound 1454] | CD8
1299 (DSKVGGNYNY) [compound 1299] | CD8
1420 (RVDFCGKGY) [compound 1420] | CD8
1328 (KFLPFQQFGR) [compound 1328] | CD8
1307 (KSNLKPFER) [compound 1307] | CD8

Same assay, conditions: T cell subset (CD4 or CD8) recognizing the SARS-CoV-2-derived epitope; cited from earlier work

Substance | Restriction
660 (HTTDPSFLGRY) [compound 660] | CD8
544 (VTPSGTWLTY) [compound 544] | CD8
677 (VMYMGTLSY) [compound 677] | CD8
583 (VTNNTFTLK) [compound 583] | CD8
618 (KLVSSFLEM) [compound 618] | CD8
668 (WKYPQVNGL) [compound 668] | CD8
626 (ALRKVPTDNY) [compound 626] | CD8
657 (LRVEAFEYY) [compound 657] | CD8
639 (SLINTLNDL) [compound 639] | CD8
563 (HVGEIPVAY) [compound 563] | CD8
596 (DDYQGKPLEF) [compound 596] | CD8
560 (APHGHVMVEL) [compound 560] | CD8
643 (SVYYTSNPTTF) [compound 643] | CD8
531 (HWPQIAQF) [compound 531] | CD8
574 (RLIDAMMFT) [compound 574] | CD8
681 (YTGNYQCGHY) [compound 681] | CD8
594 (YLFDESGEFKL) [compound 594] | CD8
679 (FTCASEYTGNY) [compound 679] | CD8
663 (FLGRYMSAL) [compound 663] | CD8
538 (ASAFFGMSR) [compound 538] | CD8
642 (ISLAGSYKDW) [compound 642] | CD8
666 (MSALNHTKKW) [compound 666] | CD8
606 (YLKLTDNVY) [compound 606] | CD8
566 (KTIQPRVEK) [compound 566] | CD8
608 (EAKKVKPTV) [compound 608] | CD8
684 (DVFYKENSY) [compound 684] | CD8
634 (AHAEETRKL) [compound 634] | CD8
678 (SAPPAQYEL) [compound 678] | CD8

Same assay, conditions: T cell type (CD4 or CD8) recognizing the SARS-CoV-2 epitope; cited from earlier work

Substance | Restriction
1022 (KPPISFPL) [compound 1022] | CD8
1070 (NTFTRLQSL) [compound 1070] | CD8
947 (FPPTSFGPL) [compound 947] | CD8
1080 (FIPMDSTVKNY) [compound 1080] | CD8
1011 (YADVFHLYL) [compound 1011] | CD8
1017 (AMYTPHTVL) [compound 1017] | CD8
1001 (LVKQGDDYVY) [compound 1001] | CD8
908 (AWPLIVTAL) [compound 908] | CD8
923 (VVYRAFDIY) [compound 923] | CD8
917 (YFIKGLNNL) [compound 917] | CD8
1037 (IPARARVEC) [compound 1037] | CD8
973 (IPTITQMNL) [compound 973] | CD8
958 (AAISDYDYYR) [compound 958] | CD8
932 (TLKEILVTY) [compound 932] | CD8
